Literature values, collected in patent publication US9963464B2, “Macrocyclic compounds” (Bayer Pharma Aktiengesellschaft, priority 2014, dated 2018).

Tested on: bronchospasms
Conditions: in vivo; cited from earlier work

C[N+]1(C)[C@@H]2C[C@@H](OC(=O)C(O)(c3cccs3)c3cccs3)C[C@H]1[C@@H]1O[C@@H]12 [tiotropium]
protection against bronchospasms (duration): more than 6 hours
